Patent US20060287375A1 (priority 2003, published 2006)
Read-outs that look alike come from different tables or passages of the source.

Tests used:
Pyricularia oryzae [1] = assay type: in vivo; conditions: rice seedlings (Aichi Asahi), wettable powder sprayed at 500 ppm active ingredient, 10 ml per pot; examined 5 days after inoculation
Septoria nodorum = assay: Test for control effect on Septoria leaf spot of wheat; assay type: in vivo; conditions: wheat seedlings (Nohrin No. 61), wettable powder at 500 ppm, 10 ml per pot; examined 10 days after inoculation
Source text: Test for Control Effect on Septoria Leaf Spot of Wheat
In each of plastic pots of 6 cm in diameter were sown 10 wheat seeds (variety: Nohrin No. 61). They were allowed to germinate in a greenhouse. […] After air-drying, the seedlings were inoculated with pycnospores of Septoria nodorum and the pot was placed in a greenhouse. After 10 days from the inoculation, the total diseased area of all the first leaves in the pot was examined.

Pyricularia oryzae [2] = assay type: in vivo; conditions: rice (Aichi Asahi), granule applied to seedling-raising box, 12 g active ingredient per box; inoculated 40 days after application, examined 6 days after inoculation
Pyricularia oryzae [3] = assay type: in vivo; conditions: paddy rice (Aichi Asahi), wettable powder on water surface, 1,000 g active ingredient per 10 ares; inoculated 10 days after application, examined 5 days after inoculation
[4] = system: Pseudoperonospora cubensis; conditions: cucumber seedlings (sagami hanjiro), wettable powder at 500 ppm, 15 ml per pot; examined 7 days later
Procedure: 10 cucumber seeds (variety: sagami hanjiro) were sown in each of vinyl chloride resin made pots of 9 cm×9 cm and were allowed to germinate in a greenhouse for 7 days. The resulting cucumber young seedlings which reached a cotyledon stage were used as a sample plant. […] The plant was air-dried and inoculated, by spraying, with a suspension of conidia of Pseudoperonospora cubensis. Immediately, the pot was placed in a wet house of 20° C. for 24 hours. Then, the pot was transferred into a greenhouse. 7 days later, the total diseased area of all the cotyledons in the pot was examined.

Erysiphe graminis = assay: Test for control effect on powdery mildew of wheat; assay type: in vivo; conditions: wheat seedlings (Nohrin No. 61), wettable powder at 500 ppm, 10 ml per pot; inoculated 7 days after application, examined 8 days after inoculation
Source text: Test for Control Effect on Powdery Mildew of Wheat
In each of plasic pots of 6 cm in diameter were sown 10 wheat seeds (variety: Nohrin No. 61). They were allowed to germinate in a greenhouse. […] After 7 days from the application, the seedlings were inoculated, by spraying, with conidia of Erysiphe graminis. After 8 days from the inoculation, the total infected area of all the first leaves in the pot was examined.

| Structure (SMILES) | Evaluation (preventive value, number of lesions of the fourth leaf) (Pyricularia oryzae [1]) | Evaluation (total diseased area of all the first leaves) (Septoria nodorum) | Evaluation (preventive value, number of lesions of the upper young leaf) (Pyricularia oryzae [3]) | further results |
| --- | --- | --- | --- | --- |
| CCC(=O)N1C(=S)c2ccccc2S1(=O)=O [compound 27] | B (Less than 100 to 80.0 or more) | – | – | – |
| O=S1(=O)c2ccccc2C(=S)N1C1CCCC1 [compound 29] | – | B (Less than 25% of untreated plot) | – | – |
| O=C(OCN1C(=S)c2ccccc2S1(=O)=O)c1cc(Cl)nc(Cl)c1 [compound 47] | – | – | B (Less than 100 to 80.0 or more) | Evaluation (preventive value, number of lesions of the upper young leaf) (Pyricularia oryzae [2]): B (Less than 100 to 80.0 or more) |
| CCOC(=O)C(C(=O)OCC)N1C(=S)c2ccccc2S1(=O)=O [compound 42] | – | – | – | Evaluation (total diseased area of all the cotyledons) [4]: B (Less than 25% of untreated plot) |
| N#CSCN1C(=S)c2ccccc2S1(=O)=O [compound 48] | B (Less than 100 to 80.0 or more) | B (Less than 25% of untreated plot) | – | Evaluation (total diseased area of all the cotyledons) [4]: B (Less than 25% of untreated plot) |
| COC(=O)N1C(=S)c2ccccc2S1(=O)=O [compound 23] | – | – | B (Less than 100 to 80.0 or more) | – |
| CCCCOC(=O)N1C(=S)c2ccccc2S1(=O)=O [compound 31] | – | B (Less than 25% of untreated plot) | B (Less than 100 to 80.0 or more) | – |
| CCCOC(=O)N1C(=S)c2ccccc2S1(=O)=O [compound 6] | A (100) | B (Less than 25% of untreated plot) | B (Less than 100 to 80.0 or more) | Evaluation (total diseased area of all the cotyledons) [4]: B (Less than 25% of untreated plot) |
| O=C(OCCCl)N1C(=S)c2ccccc2S1(=O)=O [compound 30] | B (Less than 100 to 80.0 or more) | B (Less than 25% of untreated plot) | – | – |
| Cc1nnsc1C(=O)OCN1C(=S)c2ccccc2S1(=O)=O [compound 49] | B (Less than 100 to 80.0 or more) | – | – | – |
| C#CCOC(=O)N1C(=S)c2ccccc2S1(=O)=O [compound 8] | B (Less than 100 to 80.0 or more) | – | B (Less than 100 to 80.0 or more) | Evaluation (total infected area of all the first leaves) (Erysiphe graminis): B (Less than 25% of untreated plot) |
| CC(C[N+](=O)[O-])N1C(=S)c2ccccc2S1(=O)=O (stereo not drawn) [compound 40] | B (Less than 100 to 80.0 or more) | B (Less than 25% of untreated plot) | B (Less than 100 to 80.0 or more) | – |
| CC(C)COC(=O)N1C(=S)c2ccccc2S1(=O)=O [compound 9] | B (Less than 100 to 80.0 or more) | B (Less than 25% of untreated plot) | B (Less than 100 to 80.0 or more) | Evaluation (total diseased area of all the cotyledons) [4]: B (Less than 25% of untreated plot) |
| O=S1(=O)c2ccccc2C(=S)N1CCl [compound 45] | A (100) | – | B (Less than 100 to 80.0 or more) | – |
| CON1C(=S)c2ccccc2S1(=O)=O [compound 43, 2-methoxy-1,2-benzisothiazoline-3-thioxo-1,1-dioxide] | B (Less than 100 to 80.0 or more) | – | B (Less than 100 to 80.0 or more) | – |
| O=C(Oc1ccc(Cl)cc1)N1C(=S)c2ccccc2S1(=O)=O [compound 10] | – | B (Less than 25% of untreated plot) | B (Less than 100 to 80.0 or more) | – |
| N#CCN1C(=S)c2ccccc2S1(=O)=O [compound 19] | – | – | B (Less than 100 to 80.0 or more) | – |

| Structure (SMILES) | Evaluation (preventive value, number of lesions of the fourth leaf) (Pyricularia oryzae [1]) | Evaluation (total diseased area of all the first leaves) (Septoria nodorum) | Evaluation (preventive value, number of lesions of the upper young leaf) (Pyricularia oryzae [3]) | further results |
| --- | --- | --- | --- | --- |
| O=S1(=O)c2ccccc2C(=S)N1CC=CCl [Compound No. 50] | – | B (Less than 25% of untreated plot) | – | Evaluation (total diseased area of all the cotyledons) [4]: B (Less than 25% of untreated plot) |
| O=C(OCN1C(=S)c2ccccc2S1(=O)=O)c1ccccc1 [compound 46, 2-benzoyloxymethyl-1,2-benzisothiazoline-3-thioxo-1,1-dioxide] | B (Less than 100 to 80.0 or more) | – | B (Less than 100 to 80.0 or more) | – |
| COCCN1C(=S)c2ccccc2S1(=O)=O [compound 53] | – | – | – | Evaluation (total diseased area of all the cotyledons) [4]: B (Less than 25% of untreated plot) |
| CCOC(=O)N1C(=S)c2ccccc2S1(=O)=O [Compound No. 5, 2-ethoxycarbonyl-1,2-benzisothiazoline-3-thioxo-1,1-dioxide] | B (Less than 100 to 80.0 or more) | B (Less than 25% of untreated plot) | B (Less than 100 to 80.0 or more) | Evaluation (preventive value, number of lesions of the upper young leaf) (Pyricularia oryzae [2]): B (Less than 100 to 80.0 or more) |
| C=CCOC(=O)N1C(=S)c2ccccc2S1(=O)=O [compound 7] | B (Less than 100 to 80.0 or more) | B (Less than 25% of untreated plot) | B (Less than 100 to 80.0 or more) | – |
| CCOCN1C(=S)c2ccccc2S1(=O)=O [compound 3, 2-ethoxymethyl-1,2-benzisothiazoline-3-thioxo-1,1-dioxide] | B (Less than 100 to 80.0 or more) | – | B (Less than 100 to 80.0 or more) | Evaluation (preventive value, number of lesions of the upper young leaf) (Pyricularia oryzae [2]): B (Less than 100 to 80.0 or more) |
| O=[N+]([O-])CCN1C(=S)c2ccccc2S1(=O)=O [compound 39] | B (Less than 100 to 80.0 or more) | B (Less than 25% of untreated plot) | B (Less than 100 to 80.0 or more) | – |
| CC(=O)N1C(=S)c2ccccc2S1(=O)=O [compound 22] | – | – | B (Less than 100 to 80.0 or more) | – |
| COCN1C(=S)c2ccccc2S1(=O)=O [compound 2] | B (Less than 100 to 80.0 or more) | – | B (Less than 100 to 80.0 or more) | Evaluation (total diseased area of all the cotyledons) [4]: B (Less than 25% of untreated plot); Evaluation (preventive value, number of lesions of the upper young leaf) (Pyricularia oryzae [2]): B (Less than 100 to 80.0 or more); Evaluation (total infected area of all the first leaves) (Erysiphe graminis): B (Less than 25% of untreated plot) |
| CC(C)N1C(=S)c2ccccc2S1(=O)=O [Compound No. 11] | – | – | B (Less than 100 to 80.0 or more) | – |
| O=S1(=O)c2ccccc2C(=S)N1CBr [compound 44, 2-bromomethyl-1,2-benzisothiazoline-3-thioxo-1,1-dioxide] | B (Less than 100 to 80.0 or more) | B (Less than 25% of untreated plot) | B (Less than 100 to 80.0 or more) | – |
| C=CCOC1=NS(=O)(=O)c2ccccc21 [Probenazole, reference compound] | – | – | B (Less than 100 to 80.0 or more) | Evaluation (preventive value, number of lesions of the upper young leaf) (Pyricularia oryzae [2]): B (Less than 100 to 80.0 or more) |
| CC(C)OC(=O)N1C(=S)c2ccccc2S1(=O)=O [compound 24] | – | – | B (Less than 100 to 80.0 or more) | – |
| O=C(Oc1ccccc1)N1C(=S)c2ccccc2S1(=O)=O [compound 25] | – | – | B (Less than 100 to 80.0 or more) | – |
| O=[N+]([O-])CN1C(=S)c2ccccc2S1(=O)=O [compound 20] | – | – | B (Less than 100 to 80.0 or more) | – |
| CSCN1C(=S)c2ccccc2S1(=O)=O [compound 17] | – | – | B (Less than 100 to 80.0 or more) | – |
